Values joined by “and” are separate entries in the source; they are usually repeats but may differ in a detail not shown here. Equal values may be shown once.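 All cell lines were grown in 96-well plates and treated with compound for 48 hours. Abbreviation: GI50, concentration required for 50% inhibition of growth. Definition used: TGI = concentration required for complete inhibition of growth.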 Where a SMILES comes first, the peptide text is derived from it. The star is where a group is joined. Boc = CC(C)(C)OC(=O)*; OBn = c1ccc(CO*)cc1
Assays:
Experiment in all cases: growth of human tumour cells (NCI), 48 h
NCI-H23 lung = tested on: NCI-H23 lung
A549 NSCLC = tested on: A549 NSCLC
HS 578T breast = tested on: HS 578T breast
HT29 colon = tested on: HT29 colon
UO-31 renal = tested on: UO-31 renal
A498 renal = tested on: A498 renal
K-562 leukemia = tested on: K-562 leukemia
NCI-H522 lung = tested on: NCI-H522 lung
OVCAR-8 ovarian = tested on: OVCAR-8 ovarian
COLO 205 colon = tested on: COLO 205 colon
UACC-62 melanoma = tested on: UACC-62 melanoma
U251 CNS = tested on: U251 CNS
CAKI-1 renal = tested on: CAKI-1 renal
OVCAR-3 ovarian = tested on: OVCAR-3 ovarian
MDA-MB-231 breast = tested on: MDA-MB-231 breast
IGROV1 ovarian = tested on: IGROV1 ovarian
RPMI-8226 leukemia = tested on: RPMI-8226 leukemia
SK-MEL-5 melanoma = tested on: SK-MEL-5 melanoma
MDA-MB-435 = tested on: MDA-MB-435
MDA-N = tested on: MDA-N
MOLT-4 leukemia = tested on: MOLT-4 leukemia
M14 melanoma = tested on: M14 melanoma
EKVX NSCLC = tested on: EKVX NSCLC
SF-268 CNS = tested on: SF-268 CNS
NCI-H226 lung = tested on: NCI-H226 lung
HOP-62 NSCLC = tested on: HOP-62 NSCLC
SK-MEL-2 melanoma = tested on: SK-MEL-2 melanoma
SF-295 CNS = tested on: SF-295 CNS
SNB-19 CNS = tested on: SNB-19 CNS
LOX IMVI melanoma = tested on: LOX IMVI melanoma
SR leukemia = tested on: SR leukemia
SW-620 colon = tested on: SW-620 colon
NCI-H460 lung = tested on: NCI-H460 lung
T-47D breast = tested on: T-47D breast
SK-MEL-28 melanoma = tested on: SK-MEL-28 melanoma
OVCAR-4 ovarian = tested on: OVCAR-4 ovarian
HCT-15 colon = tested on: HCT-15 colon
SN12C renal = tested on: SN12C renal
MALME-3M melanoma = tested on: MALME-3M melanoma
HL-60(TB) leukemia = tested on: HL-60(TB) leukemia
MCF7 breast = tested on: MCF7 breast
OVCAR-5 ovarian = tested on: OVCAR-5 ovarian
RXF 393 renal = tested on: RXF 393 renal
SNB-75 CNS = tested on: SNB-75 CNS
UACC-257 melanoma = tested on: UACC-257 melanoma
SK-OV-3 ovarian = tested on: SK-OV-3 ovarian
786-0 renal = tested on: 786-0 renal
HCT-116 colon = tested on: HCT-116 colon
CCRF-CEM leukemia = tested on: CCRF-CEM leukemia
SF-539 CNS = tested on: SF-539 CNS
HCC-2998 colon = tested on: HCC-2998 colon
HOP-92 NSCLC = tested on: HOP-92 NSCLC
NCI/ADR-RES ovarian = tested on: NCI/ADR-RES ovarian
TK-10 renal = tested on: TK-10 renal
DU-145 prostate = tested on: DU-145 prostate
ACHN renal = tested on: ACHN renal
PC-3 prostate = tested on: PC-3 prostate
KM12 colon = tested on: KM12 colon
BT-549 breast = tested on: BT-549 breast

CC(C)C(NC(=O)CNC(=O)C1CCCN1C(=O)C(NC(=O)OC(C)(C)C)C(C)C)C(=O)NCC(=O)OCc1ccccc1 (stereo not drawn) (Boc-VPGVG-OBn; configuration not given here)
TGI (NCI-H23 lung): > 100 µM | TGI (A549 NSCLC): > 100 µM | TGI (HS 578T breast): > 100 µM | TGI (HT29 colon): > 100 µM | TGI (UO-31 renal): > 100 µM | TGI (A498 renal): > 100 µM | TGI (K-562 leukemia): > 100 µM | TGI (NCI-H522 lung): > 100 µM | TGI (OVCAR-8 ovarian): > 100 µM | TGI (COLO 205 colon): > 100 µM | TGI (UACC-62 melanoma): > 100 µM | TGI (U251 CNS): > 100 µM | TGI (CAKI-1 renal): > 100 µM | TGI (OVCAR-3 ovarian): > 100 µM | TGI (MDA-MB-231 breast): > 100 µM | TGI (IGROV1 ovarian): > 100 µM | TGI (RPMI-8226 leukemia): > 100 µM | TGI (SK-MEL-5 melanoma): > 100 µM | TGI (MDA-MB-435): > 100 µM | TGI (MDA-N): > 100 µM | TGI (MOLT-4 leukemia): > 100 µM | TGI (M14 melanoma): > 100 µM | TGI (EKVX NSCLC): > 100 µM | TGI (SF-268 CNS): > 100 µM | TGI (NCI-H226 lung): > 100 µM | TGI (HOP-62 NSCLC): > 100 µM | TGI (SK-MEL-2 melanoma): > 100 µM | TGI (SF-295 CNS): > 100 µM | TGI (SNB-19 CNS): > 100 µM | TGI (LOX IMVI melanoma): > 100 µM | TGI (SR leukemia): > 100 µM | TGI (SW-620 colon): > 100 µM | TGI (NCI-H460 lung): > 100 µM | TGI (T-47D breast): > 100 µM | TGI (SK-MEL-28 melanoma): > 100 µM | TGI (OVCAR-4 ovarian): > 100 µM | TGI (HCT-15 colon): > 100 µM | TGI (SN12C renal): > 100 µM | TGI (MALME-3M melanoma): > 100 µM | TGI (HL-60(TB) leukemia): > 100 µM | TGI (MCF7 breast): > 100 µM | TGI (OVCAR-5 ovarian): > 100 µM | TGI (RXF 393 renal): > 100 µM | GI50 (SNB-75 CNS): 35.3 µM and > 100 µM | TGI (SNB-75 CNS): > 100 µM | TGI (UACC-257 melanoma): > 100 µM | TGI (SK-OV-3 ovarian): > 100 µM | TGI (786-0 renal): > 100 µM | TGI (HCT-116 colon): > 100 µM | TGI (CCRF-CEM leukemia): > 100 µM | TGI (SF-539 CNS): > 100 µM | TGI (HCC-2998 colon): > 100 µM | TGI (HOP-92 NSCLC): > 100 µM | TGI (NCI/ADR-RES ovarian): > 100 µM | TGI (TK-10 renal): > 100 µM | TGI (DU-145 prostate): > 100 µM | TGI (ACHN renal): > 100 µM | TGI (PC-3 prostate): > 100 µM | TGI (KM12 colon): > 100 µM

NN/C(=N\S(=O)(=O)c1cccc2nsnc12)Nc1ccc(Cl)cc1
TGI (NCI-H23 lung): > 100 µM | TGI (A549 NSCLC): > 100 µM | TGI (HT29 colon): > 100 µM | TGI (UO-31 renal): > 100 µM | TGI (A498 renal): > 100 µM | TGI (K-562 leukemia): > 100 µM | TGI (OVCAR-8 ovarian): > 100 µM | TGI (COLO 205 colon): > 100 µM | TGI (UACC-62 melanoma): > 100 µM | TGI (U251 CNS): > 100 µM | TGI (CAKI-1 renal): > 100 µM | TGI (OVCAR-3 ovarian): > 100 µM | TGI (MDA-MB-231 breast): > 100 µM | TGI (IGROV1 ovarian): > 100 µM | TGI (RPMI-8226 leukemia): > 100 µM | TGI (SK-MEL-5 melanoma): > 100 µM | TGI (MDA-N): > 100 µM | TGI (MOLT-4 leukemia): > 100 µM | TGI (M14 melanoma): > 100 µM | TGI (EKVX NSCLC): > 100 µM | TGI (SF-268 CNS): > 100 µM | TGI (NCI-H226 lung): > 100 µM | TGI (HOP-62 NSCLC): > 100 µM | TGI (SK-MEL-2 melanoma): > 100 µM | TGI (SF-295 CNS): > 100 µM | TGI (SNB-19 CNS): > 100 µM | TGI (LOX IMVI melanoma): > 100 µM | TGI (SR leukemia): > 100 µM | TGI (SW-620 colon): > 100 µM | TGI (NCI-H460 lung): > 100 µM | TGI (T-47D breast): > 100 µM | TGI (SK-MEL-28 melanoma): > 100 µM | TGI (OVCAR-4 ovarian): > 100 µM | TGI (HCT-15 colon): > 100 µM | TGI (SN12C renal): > 100 µM | TGI (HL-60(TB) leukemia): > 100 µM | TGI (MCF7 breast): > 100 µM | TGI (OVCAR-5 ovarian): > 100 µM | TGI (RXF 393 renal): > 100 µM | TGI (SNB-75 CNS): > 100 µM | TGI (UACC-257 melanoma): > 100 µM | TGI (SK-OV-3 ovarian): > 100 µM | TGI (786-0 renal): > 100 µM | TGI (HCT-116 colon): > 100 µM | TGI (CCRF-CEM leukemia): > 100 µM | TGI (SF-539 CNS): > 100 µM | TGI (HOP-92 NSCLC): > 100 µM | TGI (BT-549 breast): > 100 µM | TGI (NCI/ADR-RES ovarian): > 100 µM | TGI (TK-10 renal): > 100 µM | TGI (DU-145 prostate): > 100 µM | TGI (ACHN renal): > 100 µM | TGI (PC-3 prostate): > 100 µM | TGI (KM12 colon): > 100 µM

CC1C(=O)CC[C@@]2(C)C(=O)CCCC12O (stereo partly drawn)
TGI (NCI-H23 lung): > 100 µM | TGI (A549 NSCLC): > 100 µM | TGI (HS 578T breast): > 100 µM | TGI (HT29 colon): > 100 µM | TGI (UO-31 renal): > 100 µM | TGI (A498 renal): > 100 µM | TGI (K-562 leukemia): > 100 µM | TGI (NCI-H522 lung): > 100 µM | TGI (COLO 205 colon): > 100 µM | TGI (UACC-62 melanoma): > 100 µM | TGI (U251 CNS): > 100 µM | TGI (CAKI-1 renal): > 100 µM | TGI (OVCAR-3 ovarian): > 100 µM | TGI (MDA-MB-231 breast): > 100 µM | TGI (IGROV1 ovarian): > 100 µM | TGI (RPMI-8226 leukemia): > 100 µM | TGI (SK-MEL-5 melanoma): > 100 µM | TGI (MDA-MB-435): > 100 µM | TGI (MDA-N): > 100 µM | TGI (MOLT-4 leukemia): > 100 µM | TGI (M14 melanoma): > 100 µM | TGI (EKVX NSCLC): > 100 µM | TGI (SF-268 CNS): > 100 µM | TGI (NCI-H226 lung): > 100 µM | TGI (HOP-62 NSCLC): > 100 µM | TGI (SK-MEL-2 melanoma): > 100 µM | TGI (SF-295 CNS): > 100 µM | TGI (SNB-19 CNS): > 100 µM | TGI (LOX IMVI melanoma): > 100 µM | TGI (SR leukemia): > 100 µM | TGI (SW-620 colon): > 100 µM | TGI (NCI-H460 lung): > 100 µM | TGI (T-47D breast): > 100 µM | TGI (SK-MEL-28 melanoma): > 100 µM | TGI (OVCAR-4 ovarian): > 100 µM | TGI (HCT-15 colon): > 100 µM | TGI (SN12C renal): > 100 µM | TGI (MALME-3M melanoma): > 100 µM | TGI (HL-60(TB) leukemia): > 100 µM | TGI (MCF7 breast): > 100 µM | TGI (OVCAR-5 ovarian): > 100 µM | TGI (RXF 393 renal): > 100 µM | TGI (UACC-257 melanoma): > 100 µM | TGI (SK-OV-3 ovarian): > 100 µM | TGI (786-0 renal): > 100 µM | TGI (HCT-116 colon): > 100 µM | TGI (SF-539 CNS): > 100 µM | TGI (HCC-2998 colon): > 100 µM | TGI (HOP-92 NSCLC): > 100 µM | TGI (NCI/ADR-RES ovarian): > 100 µM | TGI (TK-10 renal): > 100 µM | TGI (DU-145 prostate): > 100 µM | TGI (ACHN renal): > 100 µM | TGI (PC-3 prostate): > 100 µM | TGI (KM12 colon): > 100 µM
